“Also recorded” adds a separate entry of the source.
How the values were obtained:
A549 lung cancer cells = experiment: Colony formation assay, alone or in combination with cisplatin
NCI-H929 myeloma cells = experiment: Cytotoxicity / proliferation at varying concentrations vs vehicle control; type: cell-based
Method: (§1) In separate experiments, the bifunctional Metnase inhibitor, 4h-new3 (see FIGS. 4 and 43) and the monofunctional Metnase inhibitor 4h (FIG. 1 and FIG. 43), were tested at varying concentrations to determine cytotoxic activity in Raji leukemia eels and MCI-H929 myeloma cells. The compounds were tested against vehicle control at varying concentrations in the above-described cancer cell lines.

Raji leukemia cells = experiment: as above; type: cell-based
Method: as §1

KG-1 leukemia cells = experiment: KG-1 cell survival and proliferation (trypan blue counts), alone or with VP-16; type: cell-based, human; conditions: KG-1 cells
Text: KG-1 cells are a human acute myeloid leukemia cell line established from a patient with acute myelogenous leukemia that had evolved from an erythroleukemia. Cytotoxicity of etoposide, a semisynthetic derivative of podophyllotoxin that also is called Vepesid (Bristol; code designation VP-16-213, abbreviated VP-16), is mediated by its interaction with DNA topoisomerase II (Topo II), an ATP-dependent nuclear enzyme that regulates DNA topology by transiently breaking and rejoining double-stranded DNA to allow DNA strand passage. Under normal conditions, the formation of a DNA strand break by Topo II is followed by precise realignment and resealing of the broken ends.
The human myeloid cell line KG-1 was grown in RPMI1640 with 10% FBS. The small cell lung cancer cell line CRL5898 was grown in HITES medium (Dulbecco's medium:Ham's F12, 50:50 mix, Insulin 0.005 mg/ml Transferrin 0.01 mg/ml Sodium selenite 30 nM Hydrocortisone 10 nM beta-estradiol 10 nM HEPES 10 mM L-glutamine 2 mM (in addition to that in the base medium)). Both cell lines were seeded at 10,000 cells/ml in the appropriate medium in 6 well plates. The Chem Div compounds were resuspended as 5 mM stock solutions in DMSO. […] Cells were plated and treated in triplicate and counted daily for 4 days in trypan blue to assess survival and proliferation.

[1] = A549, compound constantly present, cisplatin present for a shorter period
[2] = A549, compound present for 24 hours at the beginning then removed

`Cn1c(CCCC(=O)N2CCN(c3cc4c(cc3F)c(=O)c(C(=O)O)cn4C3CC3)CC2)nc2cc(N(CCCl)CCCl)ccc21` [WW-01] was tested, and the “cytotoxicity of compound compared with cisplatin” value (A549 lung cancer cells; [1]) was “significantly greater activity than cisplatin” and the “effect against colony survival, in combination with cisplatin” value (A549 lung cancer cells; [1]) was “especially active in combination with cisplatin at higher concentrations”.

With `O=C(O)c1cn(C2CC2)c2cc(N3CCN(C(=O)CCCc4ccc(N(CCCl)CCCl)cc4)CC3)c(F)cc2c1=O` [WW-10] the “cytotoxicity of compound compared with cisplatin” value (A549 lung cancer cells; A549, compound present 24 hours, cisplatin at higher concentration, shorter period) was “greater colony forming cell cytotoxicity than did cisplatin present at a higher concentration”, the “effect against colony survival, compound alone” value (A549 lung cancer cells; [2]) was “significant dose dependent effect against colony survival” and the “effect against colony survival, in combination with cisplatin” value (A549 lung cancer cells; [2]) was “especially active in combination with cisplatin at higher concentrations; also recorded: significant dose dependent effect against colony survival”.

In the case of `CC(C)n1cc(C(=O)O)c(=O)c2ccc(C(=O)c3ccc(CN(CCCl)CCCl)cc3)cc21` [4H_new3], the “level at which proliferation is decreased” value (NCI-H929 myeloma cells) is reported as “below 1 μM”, the “decrease of cancer cell proliferation compared with monofunctional inhibitor 4h” value (NCI-H929 myeloma cells; varying concentrations) is reported as “significantly more effective at decreasing cancer cell proliferation” and the “level at which proliferation is decreased” value (Raji leukemia cells) is reported as “below 1 μM”. For the same molecule, the “decrease of cancer cell proliferation compared with monofunctional inhibitor 4h” value (Raji leukemia cells; varying concentrations) was “significantly more effective at decreasing cancer cell proliferation”.

With `CC(C)n1cc(C(=O)O)c(=O)c2ccccc21` [5483-0023] the “cytotoxic activity / proliferation, compound on its own” value (KG-1 leukemia cells; compound alone) was “has cytotoxic activity on its own; also recorded: Decreases Proliferation of KG-1 Cells on its Own” and the “potentiation of cytotoxic activity of VP-16” value (KG-1 leukemia cells; in combination with VP-16) was “increases the cytotoxic activity of the anti-cancer drug VP-16; also recorded: Potentiates VP-16”.

From patent US8889689B2, “Bifunctional metnase/intnase inhibitors and related compositions and methods of treatment of cancer” (STC.UNM, priority 2010, dated 2014)
